Counter-ions that a name gives are not always drawn.
What was measured:
[1] = tested on: mice (scopolamine induced memory deficit); assay: Dark Avoidance Assay (reversal of scopolamine induced memory deficit); format: in vivo, mouse; conditions: s.c.
Method: Dark Avoidance Assay In this assay mice are tested for their ability to remember an unpleasant stimulus for a period of 24 hours. A mouse is placed in a chamber that contains a dark compartment; a strong incandescent light drives it to the dark compartment, where an electric shock is administered through metal plates on the floor. The animal is removed from the testing apparatus and tested again, 24 hours later, for the ability to remember the electric shock. If scopolamine, an anticholinergic agent that is known to cause memory impairment, is administered before an animal's initial exposure to the test chamber, the animal re-enters the dark compartment shortly after being placed in the test chamber 24 hours later. This effect of scopolamine is blocked by an active test compound, resulting in a greater interval before re-entry into the dark compartment. The results for an active compound are expressed as the percent of a group of animals in which the effect of scopolamine is blocked, as manifested by an increased interval between being placed in the test chamber and re-entering the dark compartment.

[2] = tested on: dopamine uptake, rat striatal synaptosomes; assay: Inhibition of 3H-Dopamine Uptake in Rat Striatal Synaptosomes; format: biochemical, rat (male Wistar); conditions: 3H-DA 50 nM, read-out: D: Inhibition of dopamine uptake, IC50
Method: (D) Inhibition of ^3 H-Dopamine Uptake in Rat Striatal Synaptosomes
This assay is used to show differential drug effects on dopamine uptake versus norepinephrine uptake and to identify therapeutic agents for diseases where the potentiation of dopaminergic activity may be helpful (e.g. Parkinson's Disease).
(§1) A. Animals: Male CR Wistar Rats (100-125 g).
The final desired concentration of ^3 H-DA in the assay is 50 nM. The dilution factor is 0.9. Therefore, the KHBB is made up to contain 55.5 nM [^3 H]-5DA.
5. For most assays, a 1 mM stock solution of the test compound is made up in a suitable solvent and serially diluted such that the final concentration in the assay ranges from 2×10^-8 to 2×10^-5 M. Seven concentrations are used for each assay. Higher or lower concentrations may be used depending on the potency of the compound.
(§2) Male Wistar rats are decapitated and the brain rapidly removed. Corpora striata are rapidly removed, weighed and homogenized in 9 volumes of ice-cold 0.32 M sucrose using a Potter-Elvejhem homogenizer. Homogenization should be done with 4-5 up and down strokes at medium speeds to minimize synaptosome lysis. The homogenate is centrifuged at 1000 g for 10 min. at 0-4° C. The supernatant (S1) is decanted and is used for uptake experiments.
(§3) Tubes are incubated at 37° C. under a 95% O2 /5% CO2 atmosphere for 5 minutes. For each assay, 3 tubes are incubated with 20 μl of vehicle at 0° C. in an ice bath. After incubation all tubes are immediately centrifuged at 4000 g for 10 minutes. The supernatant fluid is aspirated and the pellets dissolved by adding 1 ml of solubilizer (Triton X-100+50% EtOH, 1:4 v/v). The tubes are vigorously vortexed, decanted into scintillation vials, and counted in 10 ml of Liquiscint scintillation counting cocktail. Active uptake is the difference between cpm at 37° C. and 0° C. The percent inhibition at each drug concentration is the mean of three determinations. IC50 values are derived from log-probit analysis.

[3] = tested on: norepinephrine uptake, rat whole brain or hypothalamic synaptosomes; assay: Inhibition of [3H]-Norepinephrine Uptake in Rat Whole Brain or Hypothalamic Synaptosomes; format: biochemical, rat (male Wistar); conditions: [3H]-NE 50 nM, read-out: E: Inhibition of norepinephrine uptake, IC50
Method: (E) Inhibition of [^3 H]-Norepinephrine Uptake in Rat Whole Brain or Hypothalamic Synaptosomes
This assay is used as a biochemical screen for potential antidepressants which block norepinephrine uptake.
A. Animals: Male CR Wistar rats (100-125 g).
The final desired concentration of [^3 H]-NE in the assay is 50 nM. The dilution factor is 0.8.
5. For most assays, a 1 mM stock solution of the test compound is made up in a suitable solvent and serially diluted such that the final concentration in the assay ranges from 2×10^-8 to 2×10^-5 M. Seven concentrations are used for each assay.
as §2, with “Either whole brain minus cerebella or hypothalamus is” for “Corpora striata are rapidly removed,”
as §3

[4] = tested on: serotonin uptake, rat whole brain synaptosomes; assay: Inhibition of [3H]-Serotonin Uptake in Rat Whole Brain Synaptosomes; format: biochemical, rat (male Wistar); conditions: [3H]-5HT 50 nM, read-out: C: Inhibition of serotonin uptake, IC50
Method: (C) Inhibition of [^3 H]-Serotonin Uptake in Rat Whole Brain Synaptosomes
as §1
The final desired concentration of ^3 H-5HT in the assay is 50 nM. The dilution factor is 0.8.
5. For most assays, a 1 mM solution of the test compound is made up in suitable solvent and serially diluted such that the final concentration in the assay ranges from 2×10^-8 to 2×10^-5 M. Seven concentrations are used for each assay.
as §2, with “Whole brain minus cerebella is” for “Corpora striata are rapidly removed,”
as §3, with “(Tritor.” for “(Triton”

MAO-A = biological target: T1, MAO-A (Rattus norvegicus, UniProt P21396); assay: biochemical; set-up: species or system rat (male Wistar, whole brain minus cerebellum); conditions: substrate [3H]-5HT 200 μM; read-out: Inhibitory Concentration - IC50 MAO-A
T1 sequence (P21396 1-526): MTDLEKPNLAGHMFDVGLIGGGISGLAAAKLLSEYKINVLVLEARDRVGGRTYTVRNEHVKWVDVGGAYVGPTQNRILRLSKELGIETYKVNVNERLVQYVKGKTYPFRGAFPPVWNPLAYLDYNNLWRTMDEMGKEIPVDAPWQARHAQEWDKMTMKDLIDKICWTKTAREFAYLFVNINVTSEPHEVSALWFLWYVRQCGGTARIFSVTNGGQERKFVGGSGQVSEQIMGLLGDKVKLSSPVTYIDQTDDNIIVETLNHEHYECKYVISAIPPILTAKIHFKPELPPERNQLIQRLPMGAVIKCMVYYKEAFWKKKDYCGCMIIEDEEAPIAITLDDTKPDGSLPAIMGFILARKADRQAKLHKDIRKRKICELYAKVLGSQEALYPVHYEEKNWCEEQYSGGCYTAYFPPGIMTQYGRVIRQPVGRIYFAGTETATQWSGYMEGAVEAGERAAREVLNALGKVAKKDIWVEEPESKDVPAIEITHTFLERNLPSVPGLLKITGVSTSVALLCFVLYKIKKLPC
Description: (§4) Inhibition of Type A and Type B Monoamine Oxidase Activity in Rat Brain Synaptosomes
To determine the selective inhibition of the two forms of monoamine oxidase (MAO).
Although various methods for measuring MAO activity are available, the described method involves the extraction of the radiolabeled deaminated metabolites of [^3 H]-5HT or [^14 C]-β-phenethylamine. This procedure allows MAO-A and MAO-B activities to be measured either simultaneously or individually (3).
Serotonin creatinine SO4 (5HT) is obtained from Sigma Chemical Company. A 5 mM stock solution is made up in 0.01 N HCl. This is used to dilute the specific activity of the [^3 H]-5HT.
[^3 H]-5-Hydroxytryptamine creatinine SO4 (20-30 Ci/mmol) is obtained from New England Nuclear.
Add 12 μl of [^3 H]-5HT to 2 ml of the 5 mM 5HT solution. (Final amine concentration in the assay is 200 μM: see below.)
(§5) Equal amounts of MAO-A (5HT) and MAO-B (PEA) substrates are combined for simultaneously testing both MAO types, i.e. mixed stock solution of 2.5 mM 5HT and 2.5 mM PEA, 40 μl of this mixed solution gives a 200 μM final concentration of each amine in the assay. When testing only one MAO type, the individual 5 mM stock solutions must be diluted 1:1 with distilled water prior to adding 40 μl to the incubation mixture; i.e., same 200 μM final amine concentration.
(§6) Male Wistar rats weighing 150-250 grams were sacrificed and the brains rapidly removed. Whole brain minus cerebellum was homogenized in 30 volumes of ice-cold, phosphate-buffered 0.25 M sucrose, using a Potter-Elvejhem homogenizer. The homogenate was centrifuged at 1000 g for 10 minutes and the supernatant (S1) decanted and recentrifuged at 18,000 g for 20 minutes. The resulting pellet (p2) was resuspended in fresh 0.25 M sucrose and served as the tissue source for mitochondrial MAO.
(§7) Tubes are preincubated for 15 minutes at 37° C. and the assay is started by adding 40 μl of combined substrate ([^3 H]-5HT and [^14 C]-PEA) at 15 second intervals. The tubes are incubated for 30 minutes at 37° C. and the reaction stopped by the addition of 0.3 ml 2N HCl. Tissue blank values are determined by adding the acid before the radioactive substrate. The oxidative products of the reaction are extracted with ethyl acetate/toluene (1:1). 5 ml of this mixture is added to the tubes. The resultant mixture is vortexed for 15 seconds to extract the deaminated metabolites into the organic phase and the latter is allowed to separate from the aqueous phase. The tubes are placed in acetone/dry ice bath to freeze the aqueous layer. When this layer is frozen, the top organic layer is poured into a scintillation vial. 10 ml of Liquiscint is added and the samples are counted using window settings for ^14 C in one channel and ^3 H in the second channel. IC50 values are determined by log-probit analysis.

MAO-B = biological target: T2, MAO-B (Rattus norvegicus, UniProt P19643); assay: biochemical; set-up: species or system rat (male Wistar, whole brain minus cerebellum); conditions: substrate [14C]-PEA 200 μM; read-out: Inhibitory Concentration - IC50 MAO-B
T2 sequence (P19643 1-520): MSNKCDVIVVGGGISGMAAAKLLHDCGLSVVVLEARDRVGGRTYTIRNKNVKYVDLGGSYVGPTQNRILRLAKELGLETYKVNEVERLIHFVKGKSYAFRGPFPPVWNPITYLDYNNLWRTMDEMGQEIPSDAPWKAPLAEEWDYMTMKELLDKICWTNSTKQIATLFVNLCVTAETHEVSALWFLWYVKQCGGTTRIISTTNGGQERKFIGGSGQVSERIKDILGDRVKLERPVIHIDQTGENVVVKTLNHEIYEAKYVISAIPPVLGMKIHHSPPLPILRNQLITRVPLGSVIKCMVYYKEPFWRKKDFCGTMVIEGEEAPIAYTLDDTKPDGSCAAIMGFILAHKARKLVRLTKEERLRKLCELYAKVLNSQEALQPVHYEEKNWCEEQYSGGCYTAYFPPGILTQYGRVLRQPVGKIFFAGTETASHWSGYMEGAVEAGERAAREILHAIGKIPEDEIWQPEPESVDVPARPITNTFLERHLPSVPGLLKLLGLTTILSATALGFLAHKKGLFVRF
Method: as §4
a. β-phenethylamine (PEA) is obtained from Sigma Chemical Company. A 5 mM stock solution is made up in 0.01 N HCl. This is used to dilute the specific activity of the [^14 C]-PEA.
b. β-[ethyl-1-^14 C]-phenethylamine hydrochloride (40-50 mCi/mmol) is obtained from New England Nuclear.
Add 12 μl of [^14 C]-PEA to 2 ml of the 5 mM PEA solution. (Final amine concentration in the assay is 200 μM: see below.)
as §5, §6, §7

Structure (SMILES)	IC50 [2] [nM]	IC50 [3] [nM]	IC50 (MAO-A) [µM]	IC50 (MAO-B) [µM]	further results
Cn1cc(Nc2ccncc2)c2ccccc21.O=C(O)/C=C/C(=O)O [1-Methyl-3-(4-pyridinylamino)indole fumarate]					% of Animals with Scopolamine Induced Memory Deficit Reversal ([1]; 1 mg/kg of body weight): 33%; % of Animals with Scopolamine Induced Memory Deficit Reversal ([1]; 3 mg/kg of body weight): 29%; % of Animals with Scopolamine Induced Memory Deficit Reversal ([1]; 10 mg/kg of body weight): 27%
CN(c1ccncc1)c1cc2ccccc2s1 [2-(Methyl-4-pyridinylamino)benzo[b]thiophene hydrochloride]	510	78			IC50 [4]: 1.15 µM
CCCN(c1ccncc1)c1cc2ccccc2s1 [2-(Propyl-4-pyridinylamino)benzo[b]thiophene hydrochloride]	91	55			IC50 [4]: 0.24 µM
FC(F)(F)c1ccc2c(Nc3ccncc3)csc2c1 [3-(4-Pyridinylamino)-6-trifluoromethylbenzo[b]thiophene hydrochloride]			60	165	
c1ccc2c(Nc3ccncc3)csc2c1 [3-(4-Pyridinylamino)benzo[b]thiophene hydrochloride]			5.3	18	
O=C(O)/C=C\C(=O)O.c1ccc2c(Nc3ccncc3)c[nH]c2c1 [3-(4-pyridinylamino)-1H-indole maleate, 3-(4-Pyridinylamino)-1H-indole maleate]					% of Animals with Scopolamine Induced Memory Deficit Reversal ([1]; 10 mg/kg of body weight): 70%
c1ccc2c(Nc3ccncc3)noc2c1 [3-[(4-pyridinyl)amino]-1,2-benzisoxazole]			0.64	3.9	
Clc1ccc2c(Nc3ccncc3)c[nH]c2c1 [6-Chloro-3-(4-pyridinylamino)-1H-indole, 6-Chloro-3(4-pyridinylamino)indole]					% of Animals with Scopolamine Induced Memory Deficit Reversal ([1]; 1 mg/kg of body weight): 27%; % of Animals with Scopolamine Induced Memory Deficit Reversal ([1]; 3 mg/kg of body weight): 20%; % of Animals with Scopolamine Induced Memory Deficit Reversal ([1]; 10 mg/kg of body weight): 27%
Clc1ccc2c(Nc3ccncc3)csc2c1 [6-Chloro-3-(4-pyridinylamino)benzo[b]thiophene hydrochloride]			10.5	51	
C=CCN(c1ccncc1)c1csc2cc(Cl)ccc12 [6-Chloro-3-[(2-propenyl)(4-pyridinyl)amino]benzo[b]thiophen hydrochloride]		7			IC50 [4]: 0.12 µM
Clc1ccc2c(Nc3ccncc3)noc2c1 [6-Chloro-3-[(4-pyridinyl)amino]-1,2-benzisoxazole maleate]			2.8	51	
Clc1ccc2c(N(CC3CC3)c3ccncc3)csc2c1 [6-Chloro-3-[(cyclopropylmethyl)(4-pyridyl)amino]benzo[b]thiophen hydrochloride]		12			IC50 [4]: 0.12 µM
COc1ccc2c(Nc3ccncc3)csc2c1 [6-Methoxy-3(4-pyridinylamino)benzo[b]thiophene hydrochloride]			3.2	17	
CCCN(c1ccncc1)c1csc2cc(OC)ccc12 [6-Methoxy-3-(propyl-4-pyridinylamino)benzo[b]thiophene hydrochloride]			182	205	
CN(C)CCC=C1c2ccccc2CCc2ccccc21 [Amitriptyline, reference compound]	> 20000	7700			
O=C1CC2(CCCC2)CC(=O)N1CCCCN1CCN(c2ncccn2)CC1 [Buspirone]	> 20000				
CN(C)CCCN1c2ccccc2CCc2ccc(Cl)cc21 [Chloripramine, reference compound]	> 20000	18600			
CN1CCN(C2=Nc3cc(Cl)ccc3Nc3ccccc32)CC1 [Clozapine, reference compound]	> 20000	> 20000			
CC[C@@H]1C(=O)OC[C@@H]1Cc1cncn1C [Pilocarpine, reference compound]					% of Animals with Scopolamine Induced Memory Deficit Reversal ([1]; 5.0 mg/kg of body weight): 13%
Nc1c2c(nc3ccccc13)CCCC2 [Tacrine, reference compound]					% of Animals with Scopolamine Induced Memory Deficit Reversal ([1]; 0.63 mg/kg of body weight): 13%

Reference: US6022880A, “Substituted pyridylamino indoles” (Hoechst Marion Roussel, Inc., priority 1997, dated 2000)
